The values that follow come from patent publication US9927424B2, “Assays for identifying compounds that modulate bitter taste” (Chromocell Corporation, priority 2013, dated 2018).

The EC50 is the concentration that produces a half-maximal response.

The target in one assay is T1, TAS2R4 (Homo sapiens, UniProt Q9NYW5).
T1 construct: expressed in transfected cells
T1 sequence (Q9NYW5 1-299): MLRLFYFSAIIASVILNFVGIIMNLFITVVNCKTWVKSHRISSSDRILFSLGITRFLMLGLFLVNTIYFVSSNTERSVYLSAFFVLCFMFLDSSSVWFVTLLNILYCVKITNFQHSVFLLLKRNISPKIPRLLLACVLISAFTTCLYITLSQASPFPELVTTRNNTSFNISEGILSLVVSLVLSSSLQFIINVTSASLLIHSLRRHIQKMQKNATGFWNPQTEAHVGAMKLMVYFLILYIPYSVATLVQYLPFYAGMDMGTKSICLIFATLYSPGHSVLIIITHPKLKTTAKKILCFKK
The assay can be described thus: Calcium fluorescence functional assay, TAS2R4 cell line with mouse Gα15. Format: cell-based. Particulars: for TAS2R4 bitter receptor activity (functional response): 20 mM tastant, change in intracellular calcium; for EC50: approximately, increasing concentrations of tastant. As to the method: (§1) A panel of cell lines expressing eight specific bitter taste receptors, a subset of the panel of twenty-five bitter receptors described in International Patent Application Publication WO 2010/088633 (see, e.g., Example 26), was used for the purpose of these analyses. Accordingly, each cell line of the panel expressed a human bitter taste receptor and mouse Gα15 signaling protein.
(§2) Each of the Examples below utilized the following functional assay: • Day 1: Stable cell lines were seeded onto black wall/clear bottom 96-well, plates (e.g., Corning, 3904). Approximately 40K cells were added per well and incubated at 37° C., 5% CO2 overnight in cell growth media (DMEM (Sigma, D5796) supplemented with 10% Fetal Bovine Serum (Sigma, 5178), 2 mM Glutamine (Sigma, G7513)). • Day 2: Growth media was discarded and cells were incubated at 37° C., 5% CO2 for 60 minutes in 100 ul of load solution containing 1× Ca-3 dye (Molecular Devices, R8090), 1% DMSO in buffer containing 130 mM NaCl, 2 mM CaCl2, 5 mM KCl, 1.2 mM MgCl2, 10 mM HEPES and 10 mM Glucose (pH 7.0). Probenecid was not included in the load solution. • Functional assay: After dye loading, cell plates were placed in a fluorescent plate reader (e.g., FDSS6000 (Hamamatsu, Japan)) and receptor stimulation was measured by adding 50 ul of 3× concentrated ligand/agonist stock. Fluorescence was monitored continuously for 10 s before agonist addition and for 100-250 s after stimulation with agonist.
(§3) Receptor Activation is defined as follows: • % Activation=[((Maximum signal fluorescence−Minimum signal fluorescence)−(Maximum control fluorescence−Minimum control fluorescence))/(Maximum buffer fluorescence−Minimum buffer fluorescence)]*100 • Functional Response=[(Maximum signal fluorescence−Minimum signal fluorescence)−(Maximum control fluorescence−Minimum control fluorescence)] • Signal fluorescence: refers to the change in fluorescence seen with addition of ligand • Control fluorescence: refers to the change in fluorescence seen with addition of buffer (negative control) • Calcium signals from ligand and control were normalized to the basal fluorescence of the cells prior to the stimulation.
(§4) A concentration analysis was performed and EC50 values were calculated by nonlinear regression using the formula: Y=Bottom+(Top−Bottom)/(1+10^((Log EC50−X)*Hill Slope)), X=log of dose or concentration, Y=Response (increasing as X increases), Top=maximum signal, Bottom=minimum signal. EC50 (half maximal effective concentration) refers to the molar concentration of the agonist which produces 50% of the maximum possible effective response from that agonist.
In general terms: Calcium assays in cells follow changes in intracellular calcium, usually with a dye or a luminescent sensor.

Assay [1] deals with T2, TAS2R13 (Homo sapiens, UniProt Q9NYV9).
T2 construct: expressed in transfected cells
T2 sequence (Q9NYV9 1-303): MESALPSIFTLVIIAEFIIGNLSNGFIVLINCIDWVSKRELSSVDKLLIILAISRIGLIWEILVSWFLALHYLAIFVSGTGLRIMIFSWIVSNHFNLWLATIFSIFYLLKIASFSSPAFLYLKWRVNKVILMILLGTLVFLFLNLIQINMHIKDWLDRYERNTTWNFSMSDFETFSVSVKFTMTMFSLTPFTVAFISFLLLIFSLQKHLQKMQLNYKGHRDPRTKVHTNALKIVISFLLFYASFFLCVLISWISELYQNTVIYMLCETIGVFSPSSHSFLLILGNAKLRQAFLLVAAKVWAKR
The assay can be described thus: Calcium fluorescence functional assay, TAS2R13 cell line with mouse Gα15. Particulars: for TAS2R13 bitter receptor activity (functional response): 20 mM tastant, change in intracellular calcium; for EC50: approximately, increasing concentrations of tastant. It is filed as cell-based. The method, then:
as §1, §2, §3, §4

The target in a further assay is T3, TAS2R44 (Homo sapiens, UniProt P59538).
T3 construct: expressed in transfected cells
T3 sequence (P59538 1-309): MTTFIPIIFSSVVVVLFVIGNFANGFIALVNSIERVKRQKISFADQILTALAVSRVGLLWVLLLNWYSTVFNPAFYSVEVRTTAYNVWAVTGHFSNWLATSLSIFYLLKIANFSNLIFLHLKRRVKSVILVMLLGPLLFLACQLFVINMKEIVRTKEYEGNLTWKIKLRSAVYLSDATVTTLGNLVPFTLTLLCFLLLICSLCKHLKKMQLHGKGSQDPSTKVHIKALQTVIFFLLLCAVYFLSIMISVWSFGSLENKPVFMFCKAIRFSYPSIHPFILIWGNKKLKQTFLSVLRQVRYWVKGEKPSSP
The assay can be described thus: Calcium fluorescence functional assay, TAS2R44 cell line with mouse Gα15. Particulars: for TAS2R44 bitter receptor activity (functional response): 20 mM tastant, change in intracellular calcium; for EC50: approximately, increasing concentrations of tastant. It is filed as cell-based. As to the method:
as §1, §2, §3, §4

The target in the next assay is T4, TAS2R9 (Homo sapiens, UniProt Q9NYW1).
T4 construct: expressed in transfected cells
T4 sequence (Q9NYW1 1-312): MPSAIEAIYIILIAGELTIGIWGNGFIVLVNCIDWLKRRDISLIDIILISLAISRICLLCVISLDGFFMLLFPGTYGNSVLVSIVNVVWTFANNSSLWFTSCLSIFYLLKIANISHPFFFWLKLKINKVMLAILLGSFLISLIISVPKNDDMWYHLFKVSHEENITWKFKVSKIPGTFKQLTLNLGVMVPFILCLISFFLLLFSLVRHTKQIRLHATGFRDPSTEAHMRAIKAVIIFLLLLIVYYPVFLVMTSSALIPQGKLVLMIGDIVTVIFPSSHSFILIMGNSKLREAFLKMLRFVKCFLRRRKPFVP
Nature of the assay: Calcium fluorescence functional assay, TAS2R9 cell line with mouse Gα15. It is filed as cell-based. Particulars: for TAS2R9 bitter receptor activity (functional response): 20 mM tastant, change in intracellular calcium; for EC50: approximately, increasing concentrations of tastant. As to the method: as §1, §2, §3, §4

The target in a further assay is T5, TAS2R14 (Homo sapiens, UniProt Q9NYV8).
T5 construct: expressed in transfected cells
T5 sequence (Q9NYV8 1-317): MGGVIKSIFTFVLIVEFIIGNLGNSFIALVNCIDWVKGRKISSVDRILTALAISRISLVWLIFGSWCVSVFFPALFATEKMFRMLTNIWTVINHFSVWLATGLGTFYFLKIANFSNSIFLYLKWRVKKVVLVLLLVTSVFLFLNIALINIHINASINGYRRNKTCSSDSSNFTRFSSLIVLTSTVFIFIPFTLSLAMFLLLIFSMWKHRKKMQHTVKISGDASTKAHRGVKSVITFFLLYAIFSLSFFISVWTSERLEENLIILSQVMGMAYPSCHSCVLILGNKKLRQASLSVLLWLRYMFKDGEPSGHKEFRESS
As to conditions: PCT/US12/61400; cited from earlier work.

Assay [2] addresses T2, TAS2R13. Particulars: PCT/US12/61400; cited from earlier work.

In the case of `C/C=C/C=C/C(=O)[O-].[K+]` [potassium sorbate], the “TAS2R4 bitter receptor activity (functional response)” value (“TAS2R4 bitter receptor activity” for short) on TAS2R4 was “induced”. Moreover, at TAS2R13 [1], the “TAS2R13 bitter receptor activity (functional response)” value (“TAS2R13 bitter receptor activity” below) is “induced”. The “TAS2R44 bitter receptor activity (functional response)” value (“TAS2R44 bitter receptor activity” below) at TAS2R44 is “induced”. Moreover, at TAS2R9, the “TAS2R9 bitter receptor activity (functional response)” value (“TAS2R9 bitter receptor activity” below) is “induced”.

As to `CC(=O)[O-].[K+]` [potassium acetate], at TAS2R4, the “TAS2R4 bitter receptor activity” value is listed as “induced” and the EC50 is 5 to 10 mM. For the same compound, at TAS2R13 [1], the “TAS2R13 bitter receptor activity” value is given as “induced” and the EC50 was in the range of 5 to 10 mM. Also, on TAS2R44, the “TAS2R44 bitter receptor activity” value is recorded as “induced” and the EC50 was in the range of 5 to 10 mM. On TAS2R9, the “TAS2R9 bitter receptor activity” value is recorded as “induced” and the EC50 lay within 5 to 10 mM.

In the case of `O=C([O-])c1ccccc1.[K+]` [potassium benzoate], at TAS2R4, the “TAS2R4 bitter receptor activity” value is “induced” and the EC50 lay in the range of 5 to 10 mM. On TAS2R13 [1], the “TAS2R13 bitter receptor activity” value was “induced” and the EC50 was 5 to 10 mM. Also, on TAS2R44, the “TAS2R44 bitter receptor activity” value is recorded as “induced” and the 50% effective concentration (EC50) lay within 5 to 10 mM. At TAS2R9, the “TAS2R9 bitter receptor activity” value is on record as “induced” and the EC50 lay within 5 to 10 mM.

As to `O=S(=O)([O-])[O-].[K+].[K+]` [potassium sulfate], the “TAS2R4 bitter receptor activity” value at TAS2R4 is “induced”. Further, the “TAS2R13 bitter receptor activity” value on TAS2R13 [1] is reported as “induced”. Besides, the “TAS2R44 bitter receptor activity” value on TAS2R44 is “induced”. Further, the “TAS2R9 bitter receptor activity” value on TAS2R9 is on record as “induced”.

As for `O=C([O-])[C@H](O)[C@@H](O)[C@H](O)[C@H](O)CO.[K+]` [potassium gluconate], on TAS2R4, the “TAS2R4 bitter receptor activity” value is listed as “induced”. For the same compound, at TAS2R13 [1], the “TAS2R13 bitter receptor activity” value is “induced”. For the same compound, the “TAS2R44 bitter receptor activity” value on TAS2R44 is listed as “induced”. For the same compound, on TAS2R9, the “TAS2R9 bitter receptor activity” value is given as “induced”.

Consider `O=P([O-])([O-])O.[K+].[K+]` [potassium phosphate (dibasic)], for which the “TAS2R4 bitter receptor activity” value on TAS2R4 is reported as “induced”. Moreover, at TAS2R13 [1], the “TAS2R13 bitter receptor activity” value is “induced”. Besides, the “TAS2R44 bitter receptor activity” value at TAS2R44 was “induced”. The “TAS2R9 bitter receptor activity” value at TAS2R9 is on record as “induced”.

As to `[Cl-].[K+]` [KCl], on TAS2R14, the “TAS2R14 response to stimulation, previously shown” value was “specifically respond”. Besides, the “TAS2R13 response to stimulation, previously shown” value at TAS2R13 [2] is “specifically respond”.

On to `O=[N+]([O-])[O-].[K+]` [potassium nitrate], for which the “TAS2R4 bitter receptor activity” value on TAS2R4 is on record as “induced”. Further, the “TAS2R13 bitter receptor activity” value at TAS2R13 [1] is “induced”. For the same compound, the “TAS2R44 bitter receptor activity” value on TAS2R44 is “induced”. Further, the “TAS2R9 bitter receptor activity” value on TAS2R9 is “induced”.
